According to US4959368A, “Therapeutic agent for neurological diseases” (Mitsui Petrochemical Industries Ltd., priority 1986, dated 1990):

System: mouse neuroblastoma cell line neuro-2a
Test: Activity on neuro-2a, cells with outgrown neurites
Format: cell-based
Method: In order to examine the effects of the test compounds, the following method was also employed.
Mouse neuro 2a cells in the logarithmic growth period in the Dulbecco's modified Eagle's medium (DMEM) containing 10% FCS was seeded in a 48-well plate so that the number of cells was 1,000 cells/well, and cultured for one day in 0.25 ml of the culture fluid in each well. The culture medium was then replaced by a medium containing each of the test compounds and FCS, and the cells were further cultured for 24 hours. Then, a 4% aqueous glutaraldehyde solution in the same amount as the medium (0.25 ml) was added, and the culture fluid was left to stand at room temperature for 2 hours to fix the cells. After washing with water, a 0.05% aqueous solution of methylene blue was added to stain the cells. Under a microscope, the number of cells containing outgrown neurites (cells having at least one neutrite with a length at least two times as large as the long diameter of the cell) was counted visually, and the proportion of these cells in the entire cells was calculated. The well was observed over 5 or more visual fields (at least 2% of the entire surface area of the well) continuous to the left and right from a mark put at the center of the well, and more than 200 cells was counted. One drug compound was used in 6 different concentrations at most, and three runs were conducted for each concentration.

[1] = Table 3 Run No. 2, 1 mM, control 1.9 ± 0.9
[2] = Table 3 Run No. 4, 0.1 mM, control 3.1 ± 0.2
[3] = Table 3 Run No. 4, 1 mM, control 3.1 ± 0.2
[4] = Table 3 Run No. 9, 1 mM, control 2.0 ± 1.0
[5] = Table 3 Run No. 9, 3 mM, control 2.0 ± 1.0
[6] = Table 3 Run No. 10, 0.1 mM, control 1.7 ± 0.7
[7] = Table 3 Run No. 8, 0.3 mM, control 3.7 ± 0.4
[8] = Table 3 Run No. 8, 0.5 mM, control 3.7 ± 0.4
[9] = Table 3 Run No. 6, 0.1 mM, control 4.4 ± 0.9
[10] = Table 3 second Run No. 5, 1 mM, control 4.5 ± 0.3
[11] = Table 3 Run No. 2, 0.3 mM, control 1.9 ± 0.9
[12] = Table 3 Run No. 8, 1 mM, control 3.7 ± 0.4
[13] = Table 3 Run No. 9, 0.03 mM, control 2.0 ± 1.0
[14] = Table 3 Run No. 9, 0.1 mM, control 2.0 ± 1.0
[15] = Table 3 Run No. 9, 0.3 mM, control 2.0 ± 1.0

Compound: CCN(CC)C(=O)c1cnc(N2CCNCC2)nc1OC [Compound 112]
- Cells having neurites with a length at least twice the long diameter of cell/total number of cells [1]: 3.5 ± 0.5%

Compound: CC1Cc2nc(N3CCNCC3)ncc2C(=O)O1.Cl (stereo not drawn) [Compound 918, 7,8-Dihydro-7-methyl-5-oxo-2-piperazino(5H)pyrano[4,3-d]pyrimidine hydrochloride]
- Cells having neurites with a length at least twice the long diameter of cell/total number of cells [2]: 7.4 ± 2.5%
- Cells having neurites with a length at least twice the long diameter of cell/total number of cells [3]: 12.5 ± 0.9%

Compound: Cc1nc(N2CCNCC2)nc2c1CC(=O)N2C [Compound 464, 5,6-Dihydro-4,7-dimethyl-6-oxo-2-piperazino(7H)pyrrolo[2,3-d]pyrimidine]
- Cells having neurites with a length at least twice the long diameter of cell/total number of cells [2]: 7.1 ± 1.6%
- Cells having neurites with a length at least twice the long diameter of cell/total number of cells (Table 3 Run No. 4, 0.3 mM, control 3.1 ± 0.2): 10.1 ± 1.9%
- Cells having neurites with a length at least twice the long diameter of cell/total number of cells [3]: 13.1 ± 1.1%

Compound: NC(=O)CN1Cc2nc(N3CCNCC3)ncc2C1=O [Compound 652]
- Cells having neurites with a length at least twice the long diameter of cell/total number of cells [1]: 4.5 ± 0.3%

Compound: CC(=O)N1CCN(c2ncc3c(n2)N(C)C(=O)C3)CC1 [Compound 440, 2-(4-Acetylpiperazino)-5,6-dihydro-7-methyl-6-oxo(7H)pyrrolo[2,3-d]pyrimidine]
- Cells having neurites with a length at least twice the long diameter of cell/total number of cells [4]: 5.8 ± 1.0%
- Cells having neurites with a length at least twice the long diameter of cell/total number of cells [5]: 12.9 ± 4.1%

Compound: CN1CCc2cnc(N3CCNCC3)nc21 [Compound 914, 5,6-Dihydro-7-methyl-2-piperazino(7H)pyrrolo[2,3-d]pyrimidine naphthalene-2-sulfonate]
- Cells having neurites with a length at least twice the long diameter of cell/total number of cells [6]: 4.9 ± 0.9%
- Cells having neurites with a length at least twice the long diameter of cell/total number of cells (Table 3 Run No. 10, 0.3 mM, control 1.7 ± 0.7): 4.6 ± 0.8%

Compound: CN1C(=O)Cc2cnc(N3CCNCC3)nc21 [Compound 416]
- Cells having neurites with a length at least twice the long diameter of cell/total number of cells (Table 3 Run No. 8, 0.1 mM, control 3.7 ± 0.4): 11.7 ± 3.3%
- Cells having neurites with a length at least twice the long diameter of cell/total number of cells [7]: 40.4 ± 9.2%
- Cells having neurites with a length at least twice the long diameter of cell/total number of cells [8]: 48.7 ± 5.7%

Compound: Cc1cc2c(C)nc(N3CCNCC3)nc2o1.Cl [Compound 906, 4,6-Dimethyl-2-piperazinofuro[2,3-d]pyrimidine hydrochloride]
- Cells having neurites with a length at least twice the long diameter of cell/total number of cells [9]: 7.4 ± 1.0%
- Cells having neurites with a length at least twice the long diameter of cell/total number of cells (Table 3 Run No. 6, 0.3 mM, control 4.4 ± 0.9): 7.0 ± 0.6%

Compound: COCCN1C(=O)Cc2cnc(N3CCNCC3)nc21.O=C(O)/C=C\C(=O)O [Compound 430, 5,6-Dihydro-7-(2-methoxyethyl)-6-oxo-2-piperazino(7H)pyrrolo[2,3-d]pyrimidine maleate]
- Cells having neurites with a length at least twice the long diameter of cell/total number of cells [2]: 7.2 ± 1.9%
- Cells having neurites with a length at least twice the long diameter of cell/total number of cells (Table 3 Run No. 4, 0.5 mM, control 3.1 ± 0.2): 11.7 ± 1.8%
- Cells having neurites with a length at least twice the long diameter of cell/total number of cells [3]: 13.4 ± 0.4%
- Cells having neurites with a length at least twice the long diameter of cell/total number of cells (Table 3 second Run No. 5, 0.3 mM, control 4.5 ± 0.3): 7.6 ± 0.8%
- Cells having neurites with a length at least twice the long diameter of cell/total number of cells [10]: 9.0 ± 0.8%

Compound: CCCC(C)N1Cc2nc(N3CCNCC3)ncc2C1=O (stereo not drawn) [Compound 646]
- Cells having neurites with a length at least twice the long diameter of cell/total number of cells [6]: 7.3 ± 0.2%

Compound: Cl.c1nc(N2CCNCC2)nc2c1CCC2 [Compound 202, 6,7-Dihydro-2-piperazino(5H)cyclopentapyrimidine hydrochloride]
- Cells having neurites with a length at least twice the long diameter of cell/total number of cells [9]: 5.6 ± 1.1%

Compound: Cc1nc(N2CCNCC2)nc2c1CC(=O)N2C.Cl [Compound 466, 5,6-Dihydro-4,7-dimethyl-6-oxo-2-piperazino(7H)pyrrolo[2,3-d]pyrimidine hydrochloride]
- Cells having neurites with a length at least twice the long diameter of cell/total number of cells (Table 3 second Run No. 5, 0.1 mM, control 4.5 ± 0.3): 5.4 ± 0.3%
- Cells having neurites with a length at least twice the long diameter of cell/total number of cells [10]: 13.1 ± 1.4%

Compound: CCN(CC)C(=O)c1cnc(N2CCNCC2)nc1NC(C)C [Compound 108]
- Cells having neurites with a length at least twice the long diameter of cell/total number of cells [11]: 4.6 ± 1.2%
- Cells having neurites with a length at least twice the long diameter of cell/total number of cells [1]: 6.9 ± 1.6%

Compound: CN1C(=O)Cc2cnc(N3CCNCC3)nc21 [Compound 420]
- Cells having neurites with a length at least twice the long diameter of cell/total number of cells [7]: 16.5 ± 2.1%
- Cells having neurites with a length at least twice the long diameter of cell/total number of cells [8]: 30.6 ± 5.0%
- Cells having neurites with a length at least twice the long diameter of cell/total number of cells [12]: 47.5 ± 0.6%

Compound: CN1C(=O)Cc2cnc(N3CCN(Cc4ccc5c(c4)OCO5)CC3)nc21 [Compound 436, 5,6-Dihydro-7-methyl-2[4-(3,4-methylenedioxyphenylmethyl)piperazino]-6-oxo(7H)pyrrolo[2,3-d]pyrimidine]
- Cells having neurites with a length at least twice the long diameter of cell/total number of cells [13]: 14.3 ± 2.9%
- Cells having neurites with a length at least twice the long diameter of cell/total number of cells [14]: 15.6 ± 7.3%
- Cells having neurites with a length at least twice the long diameter of cell/total number of cells [15]: 12.5 ± 6.2%

Compound: COC(=O)c1cnc(N2CCNCC2)nc1NC(C)C [Compound 116]
- Cells having neurites with a length at least twice the long diameter of cell/total number of cells (Table 3 Run No. 10, 0.01 mM, control 1.7 ± 0.7): 7.5 ± 2.2%
- Cells having neurites with a length at least twice the long diameter of cell/total number of cells (Table 3 Run No. 10, 0.03 mM, control 1.7 ± 0.7): 11.6 ± 2.0%
- Cells having neurites with a length at least twice the long diameter of cell/total number of cells [6]: 10.6 ± 4.5%

Compound: CN1C(=O)Cc2cnc(N3CCNCC3)nc21 [Compound 414]
- Cells having neurites with a length at least twice the long diameter of cell/total number of cells [7]: 15.0 ± 4.0%
- Cells having neurites with a length at least twice the long diameter of cell/total number of cells [8]: 33.4 ± 2.6%
- Cells having neurites with a length at least twice the long diameter of cell/total number of cells [12]: 43.6 ± 7.8%

Compound: CN1C(=O)Cc2cnc(N3CCNCC3)nc21 [Compound 410]
- Cells having neurites with a length at least twice the long diameter of cell/total number of cells [7]: 22.4 ± 2.9%
- Cells having neurites with a length at least twice the long diameter of cell/total number of cells [8]: 36.7 ± 6.1%
- Cells having neurites with a length at least twice the long diameter of cell/total number of cells [12]: 15.5 ± 0.3%

Compound: CC1C(=O)N(C)c2nc(N3CCNCC3)ncc21.O=C(O)/C=C\C(=O)O (stereo not drawn) [Compound 446, 5,6-Dihydro-5,7-dimethyl-6-oxo-2-piperazino(7H)pyrrolo[2,3-d]pyrimidine maleate]
- Cells having neurites with a length at least twice the long diameter of cell/total number of cells (Table 3 Run No. 9, 0.5 mM, control 2.0 ± 1.0): 6.3 ± 0.4%
- Cells having neurites with a length at least twice the long diameter of cell/total number of cells [4]: 9.2 ± 2.0%

Compound: CCOC(=O)CC1C(=O)N(C)c2nc(N3CCNCC3)ncc21 (stereo not drawn) [Compound 674]
- Cells having neurites with a length at least twice the long diameter of cell/total number of cells (Table 3 Run No. 11, 0.03 mM, control 2.5 ± 0.6): 4.2 ± 0.8%
- Cells having neurites with a length at least twice the long diameter of cell/total number of cells (Table 3 Run No. 11, 0.1 mM, control 2.5 ± 0.6): 6.7 ± 1.3%
- Cells having neurites with a length at least twice the long diameter of cell/total number of cells (Table 3 Run No. 11, 0.3 mM, control 2.5 ± 0.6): 4.5 ± 1.9%

Compound: CNc1nc(N2CCNCC2)ncc1CCO [Compound 140, 2-Piperazino-5-(2-hydroxyethyl)-4-methylaminopyrimidine 2-naphthalenesulfonate]
- Cells having neurites with a length at least twice the long diameter of cell/total number of cells [13]: 3.7 ± 1.4%

Compound: CCCN(CCC)C(=O)c1cnc(N2CCNCC2)nc1NCC [Compound 104]
- Cells having neurites with a length at least twice the long diameter of cell/total number of cells [11]: 10.6 ± 4.6%
- Cells having neurites with a length at least twice the long diameter of cell/total number of cells [1]: 5.3 ± 1.8%

Compound: CCC(C)N1Cc2nc(N3CCNCC3)ncc2C1=O (stereo not drawn) [Compound 638]
- Cells having neurites with a length at least twice the long diameter of cell/total number of cells [14]: 6.5 ± 0.2%

Compound: CC(C)(C)N1Cc2nc(N3CCNCC3)ncc2C1=O [Compound 642]
- Cells having neurites with a length at least twice the long diameter of cell/total number of cells [14]: 9.5 ± 1.2%
- Cells having neurites with a length at least twice the long diameter of cell/total number of cells [15]: 14.4 ± 4.0%

Compound: Cl.c1nc(N2CCNCC2)nc2c1CCO2 [Compound 902, 5,6-Dihydro-2-piperazinofuro[2,3-d]pyrimidine hydrochloride]
- Cells having neurites with a length at least twice the long diameter of cell/total number of cells (Table 3 Run No. 6, 0.01 mM, control 4.4 ± 0.9): 6.9 ± 0.8%
- Cells having neurites with a length at least twice the long diameter of cell/total number of cells (Table 3 Run No. 6, 0.03 mM, control 4.4 ± 0.9): 6.7 ± 0.9%
- Cells having neurites with a length at least twice the long diameter of cell/total number of cells (Table 3 Run No. 6, 1 mM, control 4.4 ± 0.9): 6.7 ± 1.0%

Compound: CCOC(=O)N1CCN(c2ncc3c(n2)N(C)C(=O)C3)CC1 [Compound 442]
- Cells having neurites with a length at least twice the long diameter of cell/total number of cells (Table 3 Run No. 2, 0.1 mM, control 1.9 ± 0.9): 5.7 ± 0.5%
- Cells having neurites with a length at least twice the long diameter of cell/total number of cells [11]: 7.1 ± 2.6%
- Cells having neurites with a length at least twice the long diameter of cell/total number of cells [1]: 9.1 ± 0.8%
- Cells having neurites with a length at least twice the long diameter of cell/total number of cells [5]: 13.8 ± 1.2%
